Consider one compound from patent US6217879A, “Enzyme-decomposed materials of laver and uses thereof” (Shirako Co., Ltd., priority 1998, dated 2001).

This experiment in a line: Anti-oxidant action, linoleic acid peroxide number by rhodan iron method. To be noted: 3 mg α-tocopherol, 50° C. As for the experimental part: The respective fractions were measured for anti-oxidant activity in the following manner.
This solution was sealed in a test tube equipped with a screw and left in a thermostatic chamber at 50° C., and the peroxide number of the linoleic acid was measured every 48 hours by the rhodan iron method. […] The number of days elapsed until the absorbance at 500 nm reached 0.35 was assumed to be induction period (days).

Turning to `Cc1c(C)c2c(c(C)c1O)CCC(C)(CCCC(C)CCCC(C)CCCC(C)C)O2` (stereo not drawn) [α-tocopherol], the “Induction period (days until absorbance at 500 nm reached 0.35)” value turned out to be 8 days.
